Patent US11479592B2, “Erythropoietin-derived peptide, preparation method and use thereof” (Zhongshan Hospital, Fudan University, priority 2017, dated 2022)
Numbered stars: 1 amine (or outer) side, 2 acyl side, 3 side chain; on linkers, the order of the positions; unused ones are H or OH. Square brackets hold non-standard residues; d marks the D form. Peptide text beside a SMILES is read from it. * marks the point of attachment. X1 = O=C1NC2CSC(CCCCC(=O)*)C2N1; X2 = CC(O)CC(N[*:1])C(=O)[*:2]; Abu = CC[CH](N)C(=O)O

Legend:
[1] = system: red blood cells; assay: Hematopoietic experiment: red blood cell counts after daily intraperitoneal injection; type: in vivo, C57/BL6 mice; settings: for RBC generation (erythrocyte counts): tail vein blood; for red blood cell counts compared with the other groups (Saline, ACN+Milliq): as the number of administrations increases
Procedure: 18-22 g of male C57/BL6 mice (purchased from Shanghai SIPPR-BK Laboratory Animal Co., Ltd., 50 mice in total and 10 mice for each group) were used. The five groups were injected intraperitoneally with EPO (50 μg/kg), EPO-derived peptide of the present invention (50 μg/kg), EPO-derived peptide of the present invention (250 μg/kg), physiological saline (0.1 m/mouse), and solvent (ACN+Milliq, 0.1 m/mouse) once a day, respectively. On the 3th, 7th, and 13th days, the blood samples were collected from the tail vein and measured by a ProCyte Dx automatic blood cell analyzer to obtain the numbers of red blood cells thereof.

[2] = system: fetal rat cortical neurons; assay: Oxygen-glucose deprivation (OGD)-induced damage to neurons, MTT cell survival and LDH release; type: cell-based; settings: 3 h hypoxia (1% oxygen), then 4 h with EPO 5, 100 μg/ml or T3 5, 50, 100 μg/ml
Procedure: According to the methods from literatures, the fetal rat cortical neurons were cultured in the serum-free culture medium of Neurobasal® Medium (purchased from the market). After incubation in a 5% CO2 incubator for 7-14 days, the neurons were specifically labeled: microtubule-associated protein-2 (MAP-2) was stained and identified, and the nuclei were labeled with the fluorescent dye of 4, 6-diamidino-2-phenylindole (DAPI).
The fetal rat cortical neurons of primary culture were cultured in a sugar-free DMED culture medium. After being placed in the hypoxic incubator to damage neurons for 3 h, the culture medium were replaced with serum-free culture medium. EPO, the novel EPO-derived peptide (T3) and the culture medium were added to different groups respectively, and the groups were cultured in a 5% CO2 normal oxygen incubator for 4 h. Then the LDH release rate and MTT cell survival rate of each group were measured.
1. Selecting well-grown neurons cultured for 7-14 days, aspirating the old culture medium of neurons, washing 3 times with PBS buffer, and then adding sugar-free DMEM:
2. Placing the culture plates in an anoxic incubator at 37° C., and setting the oxygen concentration therein as 1%.
3. Removing the culture plates after 3 h of hypoxia, aspirating the sugar-free medium, replacing it with the original serum-free maintenance medium, adding EPO (5 μg/ml, 100 μg/ml), the EPO-derived peptide of the present invention (5 μg/ml, 50 μg/ml, 100 μg/ml), and the culture medium respectively, and placing in an 5% CO2 incubator with 95% air at 37° C. for 4 h.
4. After 4 h, measuring the cell survival rate (MTT kit, Beyotime Biotechnology Co., Ltd.) and LDH lactic dehydrogenase release rate (LDH kit, Promega Corporation) of the cells in each group.

[3] = system: fetal rat cortical neurons; assay: NMDA-induced damage to neurons, MTT cell survival and LDH release; type: cell-based; settings: NMDA 250 μmol/L, 60 min; EPO 5 μg/ml, T3 100 μg/ml
Procedure: Based on the above results, the primary cortical neurons were administered with 250 μmol/L NMDA.
1. Selecting well-grown neurons cultured for 7-14 days, and adding EPO (5 μg/ml), the EPO-derived peptide of the present invention (100 μg/ml) respectively;
2. Adding NMDA to achieve a final concentration of 250 μmol/L, and culturing in an incubator at 37° C. for 60 min;
3. Discarding the culture medium, and measuring the cell survival rate (MTT kit, Beyotime Biotechnology Co., Ltd.) and LDH lactic dehydrogenase release rate (LDH kit, Promega Corporation) of the cells in each group.

[4] = system: mouse model of transient middle cerebral artery occlusion; assay: Mouse model of transient middle cerebral artery occlusion: neurobehavioral scores, cerebral infarction volume; type: in vivo, ICR mice; settings: for cerebral infarction volume versus control group / neurobehavioral scores versus control group: EPO 50 μg/kg, T3 500 μg/kg at reperfusion; for Neurobehavioral scores / Cerebral infarction volumes: third day after surgery; for Neurobehavioral scores: 60 min ischemia then reperfusion; for Cerebral infarction volumes: cresyl violet sections
Procedure: ICR mice (male, 25-30 g, 18 mice, purchased from Shanghai Slac Laboratory Animal Co., Ltd.) were divided into control group (ACN+Millq, 0.2 ml/mouse), EPO group (50 μg/kg), novel EPO-derived peptide group (T3, 500 μg/kg), 6 mice/group. Mice in each group were operated with suture-occluded method in mice to establish middle cerebral artery occlusion model, the mice were anesthetized by intraperitoneal injection of ketamine hydrochloride and fixed on the operating table. After 60 min of ischemia, the sutures were removed to reperfuse, and the solvents (ACN+Milliq), EPO, and T3 were administered separately. Neurobehavioral scores were measured on the third day after surgery, and then the mice were sacrificed to reperfuse and the brains were harvested to make sections stained with cresyl violet. The results were shown in FIG. 7A, FIG. 7B and FIG. 7C.
1. Disinfecting the neck, making an incision at the center of the neck, exposing the left common carotid artery with a microsurgical forceps under a stereo microscope, separating the internal carotid artery, external carotid artery and pterygopalatine artery, ligating the common carotid artery and internal carotid artery; making two knots on the external carotid artery with two filaments, wherein one at the distal part of the external carotid artery is a dead knot, and one at the proximal part of the external carotid artery is a slipknot;
2. Making a small incision on the external carotid artery with venus scissors, having about half the size of the blood vessel;
3. Cutting the external carotid artery, and carefully reversely inserting the suture from the external carotid artery into the bifurcation of the external carotid artery and internal carotid artery, then loosening the knot on the internal carotid artery, inserting the suture into the internal carotid artery until it encounters a slight resistance, that is, the origin of the middle cerebral artery, and putting the mouse back into the cage.
4. Anesthetizing and fixing again after 60 min of cerebral ischemia, and re-exposing the common carotid artery, internal carotid artery and suture parts under a stereo microscope;
5. Loosening the filament ligated to the proximal part of the external carotid artery for fixing the suture with the microsurgical forceps, slowly withdrawing the suture, and ligating the stump of the external carotid artery, loosening the filament ligated to the common carotid artery to achieve reperfusion;
6. Suturing the incision of the neck, disinfecting the area, and putting the mouse back in the cage for observation.

[5] = system: pilocarpine-induced seizures; assay: Pilocarpine-induced epilepsy model: seizure latency; type: in vivo, C57/BL6 mice; settings: for seizure latency / seizure latency versus saline and solvent groups: EPO 50 μg/kg; for seizure latency: T3 500 μg/kg i.p. 1 day, 4 h, 2 h before pilocarpine 350 mg/kg; for seizure latency versus saline and solvent groups: T3 500 μg/kg, difference statistically significant
Procedure: C57/BL6 mice (male, 20-25 g, 24 mice, purchased from Shanghai JieSiJie Laboratory Animal Co., Ltd) were divided into physiological saline group (Saline, 0.2 ml/mouse), solvent group (ACN+Milliq, 0.2 ml/mouse), EPO group (50 μg/kg), novel EPO-derived peptide group (T3, 500 μg/kg), 6 mice each group. The drugs were administered 1 day, 4 h, and 2 h before pilocarpine-induced epilepsy, and the seizure latency and severity of seizures were recorded.
1. Intraperitoneally administering the mice 1 day, 4 h, 2 h prior to the injection of pilocarpine;
2. Intraperitoneally injecting scopolamine (1 mg/kg) 30 min in advance to reduce the peripheral cholinergic response induced by pilocarpine;
3. Intraperitoneally injecting pilocarpine (350 mg/kg), recording the time of administration, time of onset, severity of seizure;
Behavioral grading of epilepsy continuing status using the Racine scale:
Grade I: staring, mouth and facial movements;
Grade II: nodding, single jerks;
Grade III: unilateral/bilateral forelimb clonus
Grade V: loss of posture, jumping repeatedly, falling, tonic clonic seizure.

[6] = Blood-brain barrier penetration experiment: biotin in cerebrospinal fluid; type: in vivo, mouse; settings: mice, biotin detected in cerebrospinal fluid
Procedure: The biotin-labeled novel EPO-derived peptide was injected intraperitoneally. 5-15 μl of mouse cerebrospinal fluid was taken under general anesthesia 1 h after administration. The biotin assay kit was used to detect whether the biotin-labeled novel EPO-derived peptide entered the cerebrospinal fluid across the blood-brain barrier.
1. Anesthetizing the mouse with 4% chloral hydrate;
2. Wiping the nape of the neck with wet gauze, and cutting off the dorsal set to expose the skin; making a sagittal incision in the skin below the occipital bone, and separating the skin from both sides to expand the visual field;
3. Letting the mouse prone, placing the body at an angle of 135° to the head and fixing the head on the stereotactic instrument; bluntly separating the subcutaneous tissue and muscle along the midline under the stereo microscope; at this angle, the dura mater and spinal cord can be clearly seen in the incision below the occipital bone (The main features are a clear white appearance, a cyclical pulsation of the spinal cord blood vessels and an adjacent cerebrospinal fluid area);
4. Setting the heat value as 300 and the pressure value as 330 in the needle puller, pulling the capillary glass tube into a pointed capillary tube, and trimming the tip of the pointed capillary tube with scissors to make the blunt tip have a diameter of 0.5 mm;
5. […]

[7] = 50 ug/kg i.p. once a day, 3th day
[8] = 50 ug/kg i.p. once a day, 7th day
[9] = 50 ug/kg i.p. once a day, 13th day

Row | Compound | RBC generation (erythrocyte counts) [1, 7] | RBC generation (erythrocyte counts) [1, 8] | RBC generation (erythrocyte counts) [1, 9] | red blood cell counts compared with the other groups (Saline, ACN+Milliq) [1] | LDH release rate versus control group [2] | cell survival rate (MTT) versus control group [2] | LDH release rate versus control group [3] | cell survival rate (MTT) versus control group [3] | cerebral infarction volume versus control group [4] | neurobehavioral scores versus control group [4] | seizure latency [5] | seizure latency versus saline and solvent groups [5] | further results
1 | Erythropoietin [EPO] | 9.14 ± 0.56 M/μL | 12.79 ± 0.24 M/μL | 11.15 ± 0.23 M/μL | significantly higher than that of other groups | lower than that in the control group | higher than that in the control group | lower than that in the control group | higher than that in the control group | lower than those of the control group | lower than those of the control group | 41.16 ± 3.52 min | longer than those of the physiological saline group and the solvent group | –
2 | CCC(NC(=O)C(CC(C)C)NC(=O)CNC(=O)C(CO)NC(=O)C(NC(=O)C(C)NC(=O)C(CC(=O)O)NC(=O)C(NC(=O)C(Cc1cnc[nH]1)NC(=O)C(CC(C)C)NC(=O)C(CCC(N)=O)NC(=O)C(CC(C)C)NC(=O)C1CCCN1C(=O)C(CO)NC(=O)C(CO)NC(=O)C(CC(N)=O)NC(=O)C(NC(=O)C(CC(C)C)NC(=O)C(CC(C)C)NC(=O)C(C)NC(=O)C(CCC(N)=O)NC(=O)CNC(=O)C(CCCNC(=N)N)NC(=O)C(CC(C)C)NC(=O)C(NC(=O)C(C)NC(=O)C(CCC(=O)O)NC(=O)C(CO)NC(=O)CCCCC1SCC2NC(=O)NC21)C(C)C)C(C)C)C(C)C)C(C)C)C(=O)NC(CO)C(=O)NC(CC(C)O)C(=O)NC(C(=O)NC(C(=O)NC(CC(C)C)C(=O)NC(CC(C)C)C(=O)NC(CCCNC(=N)N)C(=O)NC(C)C(=O)NC(CC(C)C)C(=O)O)C(C)O)C(C)O (stereo not drawn) [T3] (X1-SEAVLRGQALLVNSSPLQLHVDAVSGL[Abu]S[X2]TTLLRAL-OH; configuration not given here) | 9.29 ± 0.13 M/μL | 8.75 ± 0.36 M/μL | 6.77 ± 0.18 M/μL | no significant increase | lower than that in the control group | higher than that in the control group | lower than that in the control group | higher than that in the control group | lower than those of the control group | lower than those of the control group | 40.58 ± 3.67 min | longer than those of the physiological saline group and the solvent group | RBC generation (erythrocyte counts) ([1]; 250 ug/kg i.p. once a day, 3th day): 8.16 ± 0.28 M/μL; RBC generation (erythrocyte counts) ([1]; 250 ug/kg i.p. once a day, 7th day): 9.56 ± 0.54 M/μL; RBC generation (erythrocyte counts) ([1]; 250 ug/kg i.p. once a day, 13th day): 6.52 ± 0.12 M/μL; blood-brain barrier penetration [6]: could enter the cerebrospinal fluid across the blood-brain barrier; Neurobehavioral scores ([4]; column head: Ctrl + T3 group): 6.3 ± 0.7; Cerebral infarction volumes ([4]; column head: ctrl + T3 group): 40.54 ± 5.78 mm^3; Cerebral infarction volumes ([4]; column head:): 37.72 ± 9.20 mm^3; Neurobehavioral scores ([4]; column head:): 5.7 ± 0.3; loss of neurons in the hippocampus ([5]; animals with nerve damage (epilepsy model), summary statement): reduce the loss of neurons in the hippocampus
